The values below come from patent publication US20220362163A1, “METHODS AND COMPOSITIONS FOR CANCER TREATMENT USING NANOPARTICLES CONJUGATED WITH MULTIPLE LIGANDS FOR BINDING RECEPTORS ON NK CELLS” (The University of North Carolina at Chapel Hill, priority 2019, published 2022).

SMILES strings stand for the structures.

For the assay, the system named is A431 tumor. The experiment in a line: A431 tumor model in T-cell deficient Nu mice. Particulars: i.v. at 6, 8, 10 days post-inoculation.

In the case of `COc1cccc2c1C(=O)c1c(O)c3c(c(O)c1C2=O)C[C@@](O)(C(=O)CO)C[C@@H]3O[C@H]1C[C@H](N)[C@@H](O)[C@H](C)O1` [free EPI, epirubicin], the “effect on tumor growth” value was “slightly reduced the rate of tumor growth”.
